Assay results published in patent US20260240154A1, “GLOBODERA PALLIDA CONTROL AGENT” (National Agriculture and Food Research Organization, priority 2021, published 2026).

These molecules were tested on Globodera pallida eggs (assay: Hatching accelerating effect evaluation test for Globodera pallida (liquid immersion test)). Details: 1 mL of 2 ppm test reagent solution added to 1 mL egg suspension; 16° C.; about 2 weeks; two replicates.
Format: in vivo
Protocol: A predetermined amount of compound (I) was dissolved in an aqueous solution containing 0.05% (v/v) of polyoxyethylene sorbitan monolaurate (Tween20) to prepare a 100 ppm solution of compound (I).
The 100 ppm solution of compound (I) was further diluted with a 0.05% (v/v) Tween20 aqueous solution to prepare a test reagent solution with a concentration of compound (I) of 2 ppm.
The cysts of Globodera pallida increased in a greenhouse before the previous year were isolated from the soil, immersed in distilled water and kept at 16° C. for about 2 weeks were crushed with a scalpel and the eggs were taken out to obtain an egg suspension. After preparing a density of approximately 600 eggs per mL, Tween 20 was added to a concentration of 0.05% (v/v). 1 mL of this egg suspension was put into a 13.5 mL screw cap glass vial (inner diameter: 2.1 cm, height: 4.8 cm), and 1 mL each of a test reagent solution with a concentration of compound (I) of 2 ppm was added. It was covered and kept at 16° C.
About 2 weeks later, 1 mL was taken out, and the number of hatching larvae and the number of eggs were counted under a stereomicroscope. Two replicates were installed for each compound, and the average hatching rate was calculated.

| SMILES | Average hatching rate (%) |
| --- | --- |
| CC1(C)SC(=O)CCC1c1ccc(Cl)cc1 (stereo not drawn) [Compound A-6, 5-(4-chlorophenyl)-6,6-dimethyl tetrahydro-2H-thiopyran-2-one] | 93.6% |
| CC1(C)SC(=O)CC1c1ccccc1 (stereo not drawn) [Compound B-4] | 96.3% |
| COC(=O)c1ccc(C2CCC(=O)NC2(C)C)cc1 (stereo not drawn) [Compound A-4] | 68.8% |
| Cc1ccc(C2CC(=S)OC2(C)C)cc1 (stereo not drawn) [Compound B-2, 5,5-dimethyl-4-(p-tolyl)dihydrofuran-2 (3H)-thione] | 86.6% |
| CC1(C)NC(=O)CC1c1ccc(Cl)c(Cl)c1 [Compound D-7] | 95.2% |
| CC1(C)SC(=O)CC1c1ccc(Br)cc1 (stereo not drawn) [Compound B-5] | 96.9% |
| CC1(C)OC(=O)CC1c1ccccc1 (stereo not drawn) [Compound 17, 5,5-dimethyl-4-phenyldihydrofuran-2(3H)-one] | 58.6% |
| Cc1ccc(C2CCC(=O)SC2(C)C)cc1 (stereo not drawn) [Compound A-7] | 93.9% |
| Cc1ccc(C2=CC(=O)NC2(C)C)c(C)c1 [Compound D-19] | 95.7% |
| Cc1ccccc1C1CC(=O)NC1(C)C (stereo not drawn) [Compound 10, 5,5-dimethyl-4-(2-methylphenyl)-2-pyrrolidinone] | 69.2% |
| CC1(C)NS(=O)(=O)CC1c1ccccc1 (stereo not drawn) [Compound B-9] | 69.5% |
| CC1(C)CC(=O)CC1c1ccccc1 (stereo not drawn) [Compound 21, 3,3-dimethyl-4-phenyl-cyclopentanone] | 76.6% |
| CC1(C)NC(=O)CC1c1ccccc1 (stereo not drawn) [Compound 1, 5,5-dimethyl-4-phenyl-2-pyrrolidinone] | 83.0% |
| CC1(C)SC(=O)CC1c1ccc(Cl)cc1 (stereo not drawn) [Compound B-7] | 96.6% |
| CC1(C)NC(=O)CC1c1ccc(F)cc1 (stereo not drawn) [Compound 8, 5,5-dimethyl-4-(4-fluorophenyl)-2-pyrrolidinone] | 94.1% |
| CC1(C)NC(=O)CC1c1cc(F)c(F)c(F)c1 (stereo not drawn) [Compound 13, 5,5-dimethyl-4-(3,4,5-trifluoro-phenyl)-2-pyrrolidinone] | 62.6% |
| Cc1cc(C)cc(C2=CC(=O)OC2(C)C)c1 [Compound D-17] | 55.4% |
| CC1C(=O)NC(C)(C)C1c1ccccc1 (stereo not drawn) [Compound 15, 3,5,5-trimethyl-4-phenyl-2-pyrrolidinone] | 77.3% |
| Cc1ccccc1C1=CC(=O)OC1(C)C [Compound D-13] | 60.1% |
| CC1(C)NC(=O)CC1c1ccc(C(F)(F)F)cc1 (stereo not drawn) [Compound 7, 5,5-dimethyl-4-(4-trifluoromethylphenyl)-2-pyrrolidinone] | 86.6% |
| CC1(C)OC(=O)CC1c1ccc(F)cc1 (stereo not drawn) [Compound 19, 4-(4-fluorophenyl)-5,5-dimethyldihydrofuran-2(3H)-one] | 84.6% |
| Cc1ccccc1C1=CC(=O)NC1(C)C [Compound D-18] | 58.8% |
| CC1(C)NC(=O)CCC1c1ccccc1 (stereo not drawn) [Compound A-1] | 77.4% |
| CC1(C)OC(=O)C=C1c1ccc2ccccc2c1 [Compound D-11] | 59.0% |
| Cc1ccc(C2CC(=O)OC2(C)C)cc1C [Compound D-3] | 58.8% |
| Cc1cccc(C2CC(=O)OC2(C)C)c1C [Compound D-1] | 65.6% |

| SMILES | Average hatching rate (%) |
| --- | --- |
| CC1(C)OC(=O)C=C1c1cccc2ccccc12 [Compound D-10] | 36.4% |
| Cc1ccc(C)c(C2=CC(=O)OC2(C)C)c1 [Compound D-16] | 66.5% |
| Cc1cc(C)cc(C2CC(=O)OC2(C)C)c1 [Compound D-4] | 40.1% |
| CC1(C)NC(=O)CCC1c1ccc(Br)cc1 (stereo not drawn) [Compound A-2] | 97.4% |
| Cc1ccc(C2CC(=O)NC2(C)C)c(C)c1 (stereo not drawn) [Compound 14, 5,5-dimethyl-4-(2,4-dimethyl-phenyl)-2-pyrrolidinone] | 37.6% |
| CC1(C)SC(=O)CCC1c1ccccc1 (stereo not drawn) [Compound A-5] | 92.6% |
| CC1(C)NS(=O)(=O)CC1c1ccc(Cl)cc1 (stereo not drawn) [Compound B-12, 4-(4-chlorophenyl)-3,3-dimethylisothiazolidine-1,1-dioxide] | 93.0% |
| Cc1ccc(C2CC(=S)NC2(C)C)cc1 [Compound D-8] | 91.8% |
| Cc1cccc(C2=CC(=O)OC2(C)C)c1C [Compound D-14] | 63.7% |
| Cc1ccc(C2CC(=O)OC2(C)C)c(C)c1 [Compound D-2] | 94.7% |
| Cc1ccc(C2CC(=O)SC2(C)C)cc1 (stereo not drawn) [Compound B-6, 5,5-dimethyl-4-(p-tolyl)dihydrothiophene-2 (3H)-one] | 97.1% |
| Cc1cccc(C2CC(=O)NC2(C)C)c1 (stereo not drawn) [Compound 9, 5,5-dimethyl-4-(3-methylphenyl)-2-pyrrolidinone] | 72.3% |
| CC1(C)OC(=O)C=C1c1ccc(-c2ccc(Cl)cc2)cc1 [Compound D-12] | 52.0% |
| CC1(C)OC(=O)C=C1c1ccc(Cl)cc1 [Compound D-9] | 50.1% |
| CC(C)(C)c1ccc(C2CC(=O)OC2(C)C)cc1 [Compound D-6] | 67.5% |
| Cc1ccc(C)c(C2CC(=S)OC2(C)C)c1 (stereo not drawn) [Compound B-3] | 21.2% |
| CC1(C)NC(=S)CC1c1ccccc1 (stereo not drawn) [Compound 16, 5,5-dimethyl-4-phenyl pyrrolidine-2-thione] | 69.2% |
| Cc1ccc(C)c(C2CC(=O)NC2(C)C)c1 (stereo not drawn) [Compound 11, 5,5-dimethyl-4-(2,5-dimethyl-phenyl)-2-pyrrolidinone] | 72.9% |
| COc1ccc(C2CC(=O)NC2(C)C)cc1 (stereo not drawn) [Compound 6, 5,5-dimethyl-4-(4-methoxyphenyl)-2-pyrrolidinone] | 38.0% |
| CC1(C)NC(=O)[C@H]2C[C@]21c1ccccc1 (stereo in doubt) [Compound C-1, 4,4-dimethyl-5-phenyl-3-azabicyclo[3.1.0]hexan-2-one] | 94.0% |
| CC1(C)OC(=S)CC1c1ccccc1 (stereo not drawn) [Compound B-1] | 70.4% |
| Cc1ccccc1C1CC(=O)OC1(C)C (stereo not drawn) [Compound 20, 5,5-dimethyl-4-(o-tolyl)dihydrofuran-2(3H)-one] | 63.1% |
| CCc1ccc(C2CC(=O)OC2(C)C)cc1 [Compound D-5] | 56.6% |
| Cc1ccc(C)c(C2CC(=O)SC2(C)C)c1 (stereo not drawn) [Compound B-8] | 51.2% |
| Cc1ccc(C2CS(=O)(=O)NC2(C)C)cc1 (stereo not drawn) [Compound B-11] | 80.2% |
| CC1(C)NS(=O)(=O)CC1c1ccc(Br)cc1 (stereo not drawn) [Compound B-10] | 82.7% |

Same assay, conditions: 1 ppm; optically active compounds

| SMILES | Average hatching rate at 1 ppm (%) |
| --- | --- |
| Cc1ccc(C2CC(=O)NC2(C)C)cc1 (single isomer, unassigned; (+)) [2 (+), (+)-5,5-dimethyl-4-(4-methylphenyl)-2-pyrrolidinone] | 63.6% |
| CC1(C)NC(=O)CC1c1ccccc1 (single isomer, unassigned) [1 (−), 5,5-dimethyl-4-phenyl-2-pyrrolidinone] | 87.7% |
| CC1(C)NS(=O)(=O)CC1c1ccc(Cl)cc1 (single isomer, unassigned; (+)) [B-12 (+), (+)-4-(4-chlorophenyl)-3,3-dimethylisothiazolidine-1,1-dioxide] | 95.2% |
| CC1(C)NC(=O)CC1c1ccc(Cl)cc1 (single isomer, unassigned; (+)) [3 (+), (+)-5,5-dimethyl-4-(4-chlorophenyl)-2-pyrrolidinone] | 93.2% |
| CC1(C)NC(=O)CC1c1ccc(Cl)cc1 (single isomer, unassigned) [3 (−), 5,5-dimethyl-4-(4-chlorophenyl)-2-pyrrolidinone] | 92.0% |
| CC1(C)NC(=O)CC1c1ccccc1 (single isomer, unassigned; (+)) [1 (+), (+)-5,5-dimethyl-4-phenyl-2-pyrrolidinone] | 37.8% |
| CC1(C)NS(=O)(=O)CC1c1ccc(Cl)cc1 (single isomer, unassigned) [B-12 (−), 4-(4-chlorophenyl)-3,3-dimethylisothiazolidine-1,1-dioxide] | 94.6% |
| Cc1ccc(C2CC(=O)NC2(C)C)cc1 (single isomer, unassigned; (-)) [Compound 2 (−), (−)-5,5-dimethyl-4-(4-methylphenyl)-2-pyrrolidinone] | 91.8% |
